Data: patent publication US12558428B2, “Heterobifunctional compounds and their use in treating disease” (Halda Therapeutics OpCo, Inc., priority 2024, dated 2026)
Read-outs that look alike come from different tables or passages of the source.

Key:
Format in all cases: cell-based
[1] = tested on: T-Rex 293 cells having increased expression of estrogen receptor alpha protein; assay: Cellular growth inhibition assay, T-Rex 293 cells, (+) doxycycline; conditions: T-REx-293, 72 h
Procedure, shortened: (§1)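 Viability read-out was CellTiter-Glo 2.0 luminescence after 72 h compound exposure, normalized to zero luminescence and fitted by four-parameter regression to give GI50. Cells were an ERα-inducible T-Rex 293 clone cultured with or without 3 ng/mL doxycycline in charcoal-stripped, phenol red-free medium.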

[2] = tested on: T-Rex 293 cells lacking increased expression of estrogen receptor alpha protein; assay: Cellular growth inhibition assay, T-Rex 293 cells, (−) doxycycline; conditions: T-REx-293, 72 h
Procedure, shortened: as §1

[3] = tested on: MCF7 cells (ATCC #HTB-22); assay: Cellular growth inhibition assay, MCF7 cells purchased from ATCC; conditions: Homo sapiens, MCF7, 144 h
Description: Exemplary compounds were tested for the ability to inhibit the proliferation of MCF7 cells.
MCF7 cells (ATCC #HTB-22 or ECACC #86012803) were cultured in RPMI 1640 medium supplemented with 10% heat-inactivated fetal bovine serum, 1% pen-strep, and 0.2 U/ml insulin. Cells were seeded in 25 μL of RPMI 1640 medium supplemented with 10% heat-inactivated fetal bovine serum, 1% pen-strep, 0.2 U/ml insulin in poly-D-lysine treated, black clear-bottom 384-well plates at 225 cells/well for MCF7 cells purchased from ECACC or 1,500 cells/well for MCF7 cells purchased from ATCC. Following seeding, plates were spun at 300×g for 30 seconds and cultured at 37° C. with 5% CO2 in a humidified tissue culture incubator.
At 24 hours after seeding, compounds were titrated in 100% DMSO and diluted in RPMI 1640 medium supplemented with 10% heat-inactivate fetal bovine serum, 1% pen-strep, and 0.2 U/ml insulin. A 25 μL aliquot of the compound/media mixture was added to cells, bringing the total volume in each well to 50 μL. An equal volume of DMSO without compound was used as a negative control. After treatment, plates were spun at 300×g for 30 seconds, then cultured at 37° C. with 5% CO2 for six days in a humidified tissue culture incubator.
On Day 6 of treatment, cell viability was quantified with CellTiter-Glo 2.0 reagent (Promega). Plates were equilibrated to room temperature for 30 minutes, then 25 μL of CellTiter-Glo 2.0 reagent was added to cells, bringing the total volume in each well to 75 μL. After reagent was added, plates were mixed on a shaker for two minutes at 500 rpm and then incubated at room temperature for 10 minutes. Following incubation, plates were spun at 3,000×g for 30 seconds, sealed with an optical adhesive cover, and luminescence readings were measured with an EnVision Plate Reader.
Data was normalized to 0 luminescence for baseline. A four-parameter, non-linear regression curve fit was applied to dose-response data in GraphPad Prism data analysis software to determine the half maximal growth inhibitory concentration (GI50) for each compound.

[4] = read-out: (+) Dox TRex ERa (GI50)
[5] = read-out: (−) Dox TRex ERa (GI50)
[6] = T-Rex 293 cells with doxycycline-induced ERα expression, 72 hours, CellTiter-Glo 2.0, read-out: (+) Dox TRex ERa (GI50)
[7] = T-Rex 293 cells without doxycycline, 72 hours, CellTiter-Glo 2.0, read-out: (−) Dox TRex ERa (GI50)
[8] = Table 8-A, MCF7 cells purchased from ATCC, six days, CellTiter-Glo, read-out: GI50

For `Cc1sc2c(c1C)C(c1ccc(N3CCN(c4ccc([C@@H]5c6ccc7n[nH]cc7c6C[C@@H](C)N5CC(F)(F)F)nc4)CC3)cc1)=N[C@@H](C)c1nnc(C)n1-2` [I-7, (S)-2,3,6,9-tetramethyl-4-(4-(4-(6-((6S,8R)-8-methyl-7-(2,2,2-trifluoroethyl)-6,7,8,9-tetrahydro-2H-pyrazolo[4,3-f]isoquinolin-6-yl)pyridin-3-yl)piperazin-1-yl)phenyl)-6H-thieno[3,2-f][1,2,4]triazolo[4,3-a][1,4]diazepine], the GI50 [1, 4] was 50 to 500 nM, the GI50 [2, 5] was 50 to 500 nM and the GI50 [3] was 50 to 500 nM.

`CCN(Cc1ccc(C2CN(CC3(O)CCN(c4ccc(C5=N[C@@H](C)c6nnc(C)n6-c6sc(C)c(C)c65)cc4)CC3)C2)cc1)c1cc(OC)ccc1C1CCc2cc(O)ccc2C1` (stereo partly drawn) [I-8, 4-((3-(4-((ethyl(2-(6-hydroxy-1,2,3,4-tetrahydronaphthalen-2-yl)-5-methoxyphenyl)amino)methyl)phenyl)azetidin-1-yl)methyl)-1-(4-((S)-2,3,6,9-tetramethyl-6H-thieno[3,2-f][1,2,4]triazolo[4,3-a][1,4]diazepin-4-yl)phenyl)piperidin-4-ol] showed a GI50 [1, 4] of 50 to 500 nM, a GI50 [2, 5] of 50 to 500 nM and a GI50 [3] of under 50 nM.

`Cc1sc2c(c1C)C(c1ccc(OCCCCC3CCN(CCOc4ccc(C(=O)c5c(-c6ccc(O)cc6)sc6cc(O)ccc56)cc4)CC3)cc1)=N[C@@H](Cc1ncco1)c1nnc(C)n1-2` [I-9, (S)-(6-hydroxy-2-(4-hydroxyphenyl)benzo[b]thiophen-3-yl)(4-(2-(4-(4-(4-(2,3,9-trimethyl-6-(oxazol-2-ylmethyl)-6H-thieno[3,2-f][1,2,4]triazolo[4,3-a][1,4]diazepin-4-yl)phenoxy)butyl)piperidin-1-yl)ethoxy)phenyl)methanone] gave a GI50 [1, 6] of under 50 nM, a GI50 [2, 7] of 50 to 500 nM and a GI50 [3, 8] of under 50 nM.

`Cc1sc2c(c1C)C(c1ccc(OC3CC4(CCN(CCOc5ccc(C(=O)c6c(-c7ccc(O)cc7)sc7cc(O)ccc67)cc5)CC4)C3)cc1)=N[C@@H](Cc1ncco1)c1nnc(C)n1-2` [I-10, (S)-(6-hydroxy-2-(4-hydroxyphenyl)benzo[b]thiophen-3-yl)(4-(2-(2-(4-(2,3,9-trimethyl-6-(oxazol-2-ylmethyl)-6H-thieno[3,2-f][1,2,4]triazolo[4,3-a][1,4]diazepin-4-yl)phenoxy)-7-azaspiro[3.5]nonan-7-yl)ethoxy)phenyl)methanone] was tested, and the GI50 [1, 6] was under 50 nM, the GI50 [2, 7] was under 50 nM and the GI50 [3, 8] was under 50 nM.

With `Cn1cc(-c2cc(C(C)(C)O)ccc2Oc2ccc(N3CC(CC4CCN(CCOc5ccc(C(=O)c6c(-c7ccc(O)cc7)sc7cc(O)ccc67)cc5)CC4)C3)cc2)c2cc[nH]c2c1=O` [I-11, 4-(2-(4-(3-((1-(2-(4-(6-hydroxy-2-(4-hydroxyphenyl)benzo[b]thiophene-3-carbonyl)phenoxy)ethyl)piperidin-4-yl)methyl)azetidin-1-yl)phenoxy)-5-(2-hydroxypropan-2-yl)phenyl)-6-methyl-1,6-dihydro-7H-pyrrolo[2,3-c]pyridin-7-one] the GI50 [1, 6] was under 50 nM, the GI50 [2, 7] was under 50 nM and the GI50 [3, 8] was under 50 nM.

With `Cc1sc2c(c1C)C(c1ccc(N3CCN(CC4CCN(c5ccc([C@@H]6c7ccc(O)cc7CC[C@@H]6c6ccccc6)cc5)CC4)CC3)cc1)=N[C@@H](Cc1ncco1)c1nnc(C)n1-2` [I-12, (5R,6S)-6-phenyl-5-(4-(4-((4-(4-((S)-2,3,9-trimethyl-6-(oxazol-2-ylmethyl)-6H-thieno[3,2-f][1,2,4]triazolo[4,3-a][1,4]diazepin-4-yl)phenyl)piperazin-1-yl)methyl)piperidin-1-yl)phenyl)-5,6,7,8-tetrahydronaphthalen-2-ol] the GI50 ([1]; Table 7-A, T-Rex 293 cells with doxycycline (increased ERα expression), 72 hours, CellTiter-Glo, read-out: (+) Dox GI50) was under 50 nM, the GI50 ([2]; Table 7-A, T-Rex 293 cells without doxycycline (lacking increased ERα expression), 72 hours, CellTiter-Glo, read-out: (−) Dox GI50) was 500 to 2500 nM and the GI50 [3, 8] was under 50 nM.

`Cc1sc2c(c1C)C(c1ccc(OCCC3CCN(CCOc4ccc(C(=O)c5c(-c6ccc(O)cc6)sc6cc(O)ccc56)cc4)CC3)cc1)=N[C@@H](Cc1ncco1)c1nnc(C)n1-2` [I-13, (S)-(6-hydroxy-2-(4-hydroxyphenyl)benzo[b]thiophen-3-yl)(4-(2-(4-(2-(4-(2,3,9-trimethyl-6-(oxazol-2-ylmethyl)-6H-thieno[3,2-f][1,2,4]triazolo[4,3-a][1,4]diazepin-4-yl)phenoxy)ethyl)piperidin-1-yl)ethoxy)phenyl)methanone] gave a GI50 [1, 6] of under 50 nM, a GI50 [2, 7] of 50 to 500 nM and a GI50 [3, 8] of under 50 nM.

For `Cc1sc2c(c1C)C(c1ccc(OCCCCC3CCN(c4ccc(C(=O)c5c(-c6ccc(Br)cc6)sc6cc(O)ccc56)cc4)CC3)cc1)=N[C@@H](Cc1ncco1)c1nnc(C)n1-2` [I-14, (S)-(2-(4-bromophenyl)-6-hydroxybenzo[b]thiophen-3-yl)(4-(4-(4-(4-(2,3,9-trimethyl-6-(oxazol-2-ylmethyl)-6H-thieno[3,2-f][1,2,4]triazolo[4,3-a][1,4]diazepin-4-yl)phenoxy)butyl)piperidin-1-yl)phenyl)methanone], the GI50 [1, 6] was 50 to 500 nM, the GI50 [2, 7] was over 2500 nM and the GI50 [3, 8] was 500 to 2500 nM.

`Cc1sc2c(c1C)C(c1ccc(OCCC3CCN(c4ccc(C(=O)c5c(-c6ccc(O)cc6)sc6cc(O)ccc56)cc4)CC3)cc1)=N[C@@H](Cc1ncco1)c1nnc(C)n1-2` [I-15, (S)-(6-hydroxy-2-(4-hydroxyphenyl)benzo[b]thiophen-3-yl)(4-(4-(2-(4-(2,3,9-trimethyl-6-(oxazol-2-ylmethyl)-6H-thieno[3,2-f][1,2,4]triazolo[4,3-a][1,4]diazepin-4-yl)phenoxy)ethyl)piperidin-1-yl)phenyl)methanone] was tested, and the GI50 [1, 6] was under 50 nM, the GI50 [2, 7] was under 50 nM and the GI50 [3, 8] was under 50 nM.

Work on `Cc1sc2c(c1C)C(c1ccc(Cl)cc1)=N[C@@H](CC(=O)NCCCCCCCOc1ccc(C(=O)c3c(-c4ccc(O)cc4)sc4cc(O)ccc34)cc1)c1nnc(C)n1-2` [I-16, (S)-2-(4-(4-chlorophenyl)-2,3,9-trimethyl-6H-thieno[3,2-f][1,2,4]triazolo[4,3-a][1,4]diazepin-6-yl)-N-(7-(4-(6-hydroxy-2-(4-hydroxyphenyl)benzo[b]thiophene-3-carbonyl)phenoxy)heptyl)acetamide] yielded a GI50 [1, 6] of over 2500 nM, a GI50 [2, 7] of over 2500 nM and a GI50 [3, 8] of 50 to 500 nM.

Molecule `Cc1sc2c(c1C)C(c1ccc(Cl)cc1)=N[C@@H](CC(=O)NCCCCOCCOc1ccc(C(=O)c3c(-c4ccc(O)cc4)sc4cc(O)ccc34)cc1)c1nnc(C)n1-2` [I-17, (S)-2-(4-(4-chlorophenyl)-2,3,9-trimethyl-6H-thieno[3,2-f][1,2,4]triazolo[4,3-a][1,4]diazepin-6-yl)-N-(4-(2-(4-(6-hydroxy-2-(4-hydroxyphenyl)benzo[b]thiophene-3-carbonyl)phenoxy)ethoxy)butyl)acetamide] has a GI50 [1, 6] of 500 to 2500 nM, a GI50 [2, 7] of 500 to 2500 nM and a GI50 [3, 8] of 50 to 500 nM.

`Cc1sc2c(c1C)C(c1ccc(CC3CC4(CCN(CCOc5ccc(C(=O)c6c(-c7ccc(O)cc7)sc7cc(O)ccc67)cc5)CC4)C3)cc1)=N[C@@H](C)c1nnc(C)n1-2` [I-19, (S)-(6-hydroxy-2-(4-hydroxyphenyl)benzo[b]thiophen-3-yl)(4-(2-(2-(4-(2,3,6,9-tetramethyl-6H-thieno[3,2-f][1,2,4]triazolo[4,3-a][1,4]diazepin-4-yl)benzyl)-7-azaspiro[3.5]nonan-7-yl)ethoxy)phenyl)methanone] gave a GI50 [1, 6] of under 50 nM, a GI50 [2, 7] of 50 to 500 nM and a GI50 [3, 8] of under 50 nM.

Work on `Cc1sc2c(c1C)C(c1ccc(C#CC3CC4(CCN(CCOc5ccc(C(=O)c6c(-c7ccc(O)cc7)sc7cc(O)ccc67)cc5)CC4)C3)cc1)=N[C@@H](Cc1ncco1)c1nnc(C)n1-2` [I-20, (S)-(6-hydroxy-2-(4-hydroxyphenyl)benzo[b]thiophen-3-yl)(4-(2-(2-((4-(2,3,9-trimethyl-6-(oxazol-2-ylmethyl)-6H-thieno[3,2-f][1,2,4]triazolo[4,3-a][1,4]diazepin-4-yl)phenyl)ethynyl)-7-azaspiro[3.5]nonan-7-yl)ethoxy)phenyl) methanone] yielded a GI50 [1, 6] of under 50 nM, a GI50 [2, 7] of under 50 nM and a GI50 [3, 8] of under 50 nM.
